Measured values as given in the supplement of paper PMC5662764.
± gives the standard deviation of the averaged measurements.

How the values were obtained:
Assay in all cases: normalised growth rate inhibition (GR value) relative to DMSO control (GR (1 = untreated growth, 0 = cytostasis, <0 = cytotoxic)); higher = less growth inhibition
Conditions in all cases: 72 h
BT20 = test system: BT20
Description: (§1)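 Breast cancer cell lines (BT-20, Hs 578T, MCF 10A, MCF7, MDA-MB-231, SK-BR-3) were plated in 384-well plates and treated 24 h later with drugs at six concentrations (0.04-10 µM). Viable cells were counted by Hoechst/dead-cell-stain imaging at 0 and 72 h. Counts were normalised to DMSO controls on the same plate to give the relative cell count and the growth-rate inhibition (GR) value; technical plate triplicates were averaged for each biological replicate.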

HS578T = test system: HS578T
Description: as §1

MCF10A = test system: MCF10A
Description: as §1

MCF7 = test system: MCF7
Description: as §1

MDAMB231 = test system: MDAMB231
Description: as §1

SKBR3 = test system: SKBR3
Description: as §1

SMILES	normalised growth rate inhibition (BT20; 0.04 µM)	normalised growth rate inhibition (BT20; 0.12 µM)	normalised growth rate inhibition (BT20; 0.37 µM)	normalised growth rate inhibition (BT20; 1.11 µM)	normalised growth rate inhibition (BT20; 3.33 µM)	normalised growth rate inhibition (BT20; 10 µM)	normalised growth rate inhibition (HS578T; 0.04 µM)	normalised growth rate inhibition (HS578T; 0.12 µM)	normalised growth rate inhibition (HS578T; 0.37 µM)	normalised growth rate inhibition (HS578T; 1.11 µM)	normalised growth rate inhibition (HS578T; 3.33 µM)	normalised growth rate inhibition (HS578T; 10 µM)	normalised growth rate inhibition (MCF10A; 0.04 µM)	normalised growth rate inhibition (MCF10A; 0.12 µM)	normalised growth rate inhibition (MCF10A; 0.37 µM)	normalised growth rate inhibition (MCF10A; 1.11 µM)	normalised growth rate inhibition (MCF10A; 3.33 µM)	normalised growth rate inhibition (MCF10A; 10 µM)	normalised growth rate inhibition (MCF7; 0.04 µM)	normalised growth rate inhibition (MCF7; 0.12 µM)	normalised growth rate inhibition (MCF7; 0.37 µM)	normalised growth rate inhibition (MCF7; 1.11 µM)	normalised growth rate inhibition (MCF7; 3.33 µM)	normalised growth rate inhibition (MCF7; 10 µM)	normalised growth rate inhibition (MDAMB231; 0.04 µM)	normalised growth rate inhibition (MDAMB231; 0.12 µM)	normalised growth rate inhibition (MDAMB231; 0.37 µM)	normalised growth rate inhibition (MDAMB231; 1.11 µM)	normalised growth rate inhibition (MDAMB231; 3.33 µM)	normalised growth rate inhibition (MDAMB231; 10 µM)	normalised growth rate inhibition (SKBR3; 0.04 µM)	normalised growth rate inhibition (SKBR3; 0.12 µM)	normalised growth rate inhibition (SKBR3; 0.37 µM)	normalised growth rate inhibition (SKBR3; 1.11 µM)	normalised growth rate inhibition (SKBR3; 3.33 µM)	normalised growth rate inhibition (SKBR3; 10 µM)
COC1=C2C[C@@H](C)C[C@H](OC)[C@H](O)[C@@H](C)/C=C(\C)[C@H](OC(N)=O)[C@@H](OC)/C=C\C=C(/C)C(=O)NC(=CC1=O)C2=O [geldanamycin]	0.262 ± 0.1	0.00984 ± 0.086	-0.0513 ± 0.1	-0.0518 ± 0.12	-0.114 ± 0.12	-0.238 ± 0.1	0.762 ± 0.073	0.219 ± 0.12	0.143 ± 0.062	0.121 ± 0.071	0.0267 ± 0.14	-0.11 ± 0.17	0.111 ± 0.066	-0.0212 ± 0.045	-0.0537 ± 0.053	-0.0551 ± 0.04	-0.0997 ± 0.049	-0.171 ± 0.06	0.503 ± 0.079	0.134 ± 0.026	0.0361 ± 0.021	0.0592 ± 0.03	-0.0316 ± 0.038	-0.3 ± 0.085	0.443 ± 0.2	0.0763 ± 0.097	0.0142 ± 0.17	-0.0565 ± 0.17	-0.148 ± 0.15	-0.284 ± 0.13	0.0174 ± 0.11	-0.0672 ± 0.11	-0.0584 ± 0.085	-0.03 ± 0.059	-0.187 ± 0.11	-0.441 ± 0.14
COCC(=O)NC/C=C/c1ccc2ncnc(Nc3ccc(Oc4ccc(C)nc4)c(C)c3)c2c1	0.928 ± 0.0096	0.918 ± 0.026	0.892 ± 0.045	0.805 ± 0.032	0.767 ± 0.053	0.531 ± 0.052	0.966 ± 0.018	0.975 ± 0.035	0.963 ± 0.026	0.956 ± 0.042	0.928 ± 0.025	0.857 ± 0.017	1.011 ± 0.0036	0.9964 ± 0.006	0.989 ± 0.014	0.984 ± 0.01	0.9849 ± 0.0016	0.9384 ± 0.003	0.835 ± 0.1	0.803 ± 0.063	0.786 ± 0.025	0.796 ± 0.066	0.822 ± 0.084	0.499 ± 0.13	0.899 ± 0.13	0.896 ± 0.13	0.897 ± 0.12	0.912 ± 0.088	0.832 ± 0.15	0.812 ± 0.14	0.508 ± 0.27	0.315 ± 0.22	0.188 ± 0.21	0.165 ± 0.12	0.0772 ± 0.1	-0.0874 ± 0.078
C[C@@H]1C[C@H]2O[C@@H]2/C=C\C=C\C(=O)Cc2c(Cl)c(O)cc(O)c2C(=O)O1 [radicicol]	0.839 ± 0.08	0.395 ± 0.11	0.115 ± 0.088	-0.0176 ± 0.13	-0.0598 ± 0.11	-0.163 ± 0.097	1.029 ± 0.01	0.95 ± 0.091	0.704 ± 0.27	0.321 ± 0.19	0.0951 ± 0.08	0.049 ± 0.12	0.886 ± 0.075	0.598 ± 0.21	0.299 ± 0.15	0.104 ± 0.021	-0.0227 ± 0.054	-0.182 ± 0.1	0.574 ± 0.059	0.262 ± 0.033	0.124 ± 0.04	0.123 ± 0.036	0.115 ± 0.035	-0.0962 ± 0.041	1.06 ± 0.035	0.744 ± 0.084	0.298 ± 0.12	0.0741 ± 0.12	0.0054 ± 0.14	-0.0299 ± 0.12	0.329 ± 0.053	0.0873 ± 0.083	0.0279 ± 0.1	-0.0112 ± 0.14	-0.0134 ± 0.1	-0.166 ± 0.053
